System: 521955-158-R2-J5-PDC complex spheroid growth, % test/control
Test: Anticancer human tumor 521955-158-R2-J5-PDC patient-derived pancreatic carcinoma cell line growth inhibition [Asc]
Details: for IC50: curve of first compound; for viability, T/C: stronger effect = lower value
Outline: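 Concentration series start at each agent's clinical Cmax, or at 10 microM when none is established, and drop in half-log steps; agents are applied alone or together to complex spheroids built with HUVEC and hMSC.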
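Note: spheroids exposed to agents for 7 days before readout.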
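Throughout, for viability, T/C: 100% = DMSO vehicle control viability.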

Cc1nc(N2CCC3(CC2)COC(C)C3N)c(CO)nc1Sc1ccnc(N)c1Cl (stereo not given) + Cc1c(S(C)(=O)=O)c(-c2cc(F)cc(N3CCN(c4ccc(NS(=O)(=O)c5ccc(NC(CCN6CCC(C(=O)OCCCP(=O)(O)O)CC6)CSc6ccccc6)c(S(=O)(=O)C(F)(F)F)c5)cc4)CC3)c2)c(-c2ccc(Cl)cc2)n1C(C)C
IC50 (second compound 0.1 µM): 60.8 nM | IC50 (second compound 0.316 µM): 57.7 nM | IC50 (second compound 1 µM): 142 nM | IC50 (second compound 3.16 µM): 392 nM | IC50 (second compound 10 µM): > 3000 nM | viability, T/C (second compound 0.1 µM, first compound 0.00949 µM): 52.9% | viability, T/C (second compound 0.1 µM, first compound 0.03 µM): 55.8% | viability, T/C (second compound 0.1 µM, first compound 0.0949 µM): 45.8% | viability, T/C (second compound 0.1 µM, first compound 0.3 µM): 43.2% | viability, T/C (second compound 0.1 µM, first compound 0.949 µM): 34.9% | viability, T/C (second compound 0.1 µM, first compound 3 µM): 36.9% | viability, T/C (second compound 0.316 µM, first compound 0.00949 µM): 63.6% | viability, T/C (second compound 0.316 µM, first compound 0.03 µM): 65.8% | viability, T/C (second compound 0.316 µM, first compound 0.0949 µM): 38.9% | viability, T/C (second compound 0.316 µM, first compound 0.3 µM): 32.9% | viability, T/C (second compound 0.316 µM, first compound 0.949 µM): 30.4% | viability, T/C (second compound 0.316 µM, first compound 3 µM): 30.5% | viability, T/C (second compound 1 µM, first compound 0.00949 µM): 64.6% | viability, T/C (second compound 1 µM, first compound 0.03 µM): 69.4% | viability, T/C (second compound 1 µM, first compound 0.0949 µM): 48.2% | viability, T/C (second compound 1 µM, first compound 0.3 µM): 39.4% | viability, T/C (second compound 1 µM, first compound 0.949 µM): 44.4% | viability, T/C (second compound 1 µM, first compound 3 µM): 29.4% | viability, T/C (second compound 3.16 µM, first compound 0.00949 µM): 75.9% | viability, T/C (second compound 3.16 µM, first compound 0.03 µM): 64.7% | viability, T/C (second compound 3.16 µM, first compound 0.0949 µM): 61.2% | viability, T/C (second compound 3.16 µM, first compound 0.3 µM): 50.3% | viability, T/C (second compound 3.16 µM, first compound 0.949 µM): 43% | viability, T/C (second compound 3.16 µM, first compound 3 µM): 48.9% | viability, T/C (second compound 10 µM, first compound 0.00949 µM): 230% | viability, T/C (second compound 10 µM, first compound 0.03 µM): 221% | viability, T/C (second compound 10 µM, first compound 0.0949 µM): 179% | viability, T/C (second compound 10 µM, first compound 0.3 µM): 190% | viability, T/C (second compound 10 µM, first compound 0.949 µM): 179% | viability, T/C (second compound 10 µM, first compound 3 µM): 134%
